Patent US20230329304A1, “METABOLIC THERAPY OF CANCER” (AMINOVITA S.L., priority 2020, published 2023)

How the values were obtained:
CT26.WT cancer cells [1] = experiment: Survival of mice with colon cancer (CT26.WT cells, intravenous model); assay type: in vivo, female BALB/cAnNRJ mice
Description: (§1) All mice were purchased from Janvier Labs® (France). Male BALB/cAnNRJ mice were used for the renal cancer model (Renca cells, intraperitoneal model). Female BALB/cAnNRJ mice were used for the colon cancer models (CT26WT cells, intraperitoneal and intravenous models), and for the triple negative breast cancer model (4T1 cells, intravenous model). Female C57BL/6J mice were used for the lung cancer model (LLc1 cells, intravenous model) and for the melanoma model (B16-F10 cells, intravenous model). All mice were 12 weeks or older at the beginning of the experiments. Treatments started 8 days after the injection of the cancer cells for the 4T1 breast cancer model and for the Renca renal cancer model (when the number of injected cells was 100.000). Treatments started 7 days after the injection for the Renca cancer model when the number of inoculated cells was 150.000, and for the LLc1 lung cancer model. […]
(§2) Murine cells (5th-7th passage) were cultured in 75-cm2 flask. […] Cells were counted again. […] After inoculating the last mice, the cells in the last tube were placed in a flask and monitored during several weeks under the microscope to ensure that all mice were inoculated with viable cells.
(§3) One day before the start of the treatments, mice were housed in individual cages to avoid cannibalism. […] Animals were monitored daily and body weights were determined periodically (at least three times per week). […]

4T1 cancer cells = experiment: Survival of mice with triple negative breast cancer (4T1 cells, intravenous model); assay type: in vivo; conditions: for mean survival (FIG. 4): 100,000 4T1 cells tail vein, treatment from day 8, diets 28 days, capecitabine 450 mg/kg/day oral cycles, cisplatin 5 mg/kg weekly x4 ip, control 26.1 days; for Survival improvement vs untreated mice (mean, days): Breast cancer, 4T1 cells, 100.000, tail vein injection (iv)
Description: (§4) All mice were purchased from Janvier Labs® (France). Male BALB/cAnNRJ mice were used for the renal cancer model (Renca cells, intraperitoneal model). Female BALB/cAnNRJ mice were used for the colon cancer models (CT26WT cells, intraperitoneal and intravenous models), and for the triple negative breast cancer model (4T1 cells, intravenous model). Female C57BL/6J mice were used for the lung cancer model (LLc1 cells, intravenous model) and for the melanoma model (B16-F10 cells, intravenous model). All mice were 12 weeks or older at the beginning of the experiments. Treatments started 8 days after the injection of the cancer cells for the 4T1 breast cancer model and for the Renca renal cancer model (when the number of injected cells was 100.000). Treatments started 7 days after the injection for the Renca cancer model when the number of inoculated cells was 150.000, and for the LLc1 lung cancer model. Treatments started 4 days after the injection in the CT26WT colon cancer models (intraperitoneal and intravenous) and in the B16-F10 melanoma model.
(§5) Murine cells (5th-7th passage) were cultured in 75-cm2 flask. When the cells were approximately 60-70% confluent, medium was removed and cells were washed twice with sterile PBS. Then, cells were incubated with trypsin/EDTA solution for 2-3 min at 37° C. to allow cells to have a rounded shape but without detaching. Next, trypsin/EDTA solution was aspirated, cells were resuspended in 5 mL sterile PBS and the cell suspension was pipetted up and down to break up any cell aggregate before adding 10% FBS supplemented medium. Then, a working cell suspension (between 5×10^5-25×10^6 cells/mL depending on cancer model) was prepared. This suspension was centrifuged (5 min, 250 g) at room temperature. Medium was removed and cells were resuspended in warm 2.5% FBS supplemented medium. The working cell suspension was aliquoted into 2 mL tubes and they were kept at 37° C. in a humidified atmosphere containing 5% CO2 until use. Several minutes before the injection, tubes were centrifuged at 300 g 4° C. for 3 min, medium was removed and cells were resuspended in sterile PBS. Cells were counted again. Finally, a 1-mL syringe (insulin type with a 29-G×½″ needle) was filled with 0.2 mL of the working cell suspension, which was injected in the peritoneal cavity or in the tail vein of the mice. After inoculating the last mice, the cells in the last tube were placed in a flask and monitored during several weeks under the microscope to ensure that all mice were inoculated with viable cells.
One day before the start of the treatments, mice were housed in individual cages to avoid cannibalism. Treatments started four, seven or eight days (depending on the model) after injecting the cancer cells. Most treatments with the artificial diets lasted at least 4 weeks. Treatment with the artificial diets simply consisted of replacing their normal diet with an artificial diet in which the levels of specific AAs and lipids were manipulated. Sunitinib, and capecitabine were administered daily in the diet. Cisplatin and the anti-PD1 antibody were injected intraperitoneally. Animals were monitored daily and body weights were determined periodically (at least three times per week). […] Post-mortem examination was carried out to confirm the cause of death and to observe the extent of the disease. Autopsies confirmed the presence of tumors in all euthanized mice. […]

CT26.WT cancer cells [2] = experiment: Survival of mice with colon cancer (CT26.WT cells, intraperitoneal model); assay type: in vivo, female BALB/cAnNRJ mice
Description: as §4
Murine cells (5th-7th passage) were cultured in 75-cm2 flask. When the cells were approximately 60-70% confluent, medium was removed and cells were washed twice with sterile PBS. Then, cells were incubated with trypsin/EDTA solution for 2-3 min at 37° C. to allow cells to have a rounded shape but without detaching. Next, trypsin/EDTA solution was aspirated, cells were resuspended in 5 mL sterile PBS and the cell suspension was pipetted up and down to break up any cell aggregate before adding 10% FBS supplemented medium. […] Cells were counted again. […] After inoculating the last mice, the cells in the last tube were placed in a flask and monitored during several weeks under the microscope to ensure that all mice were inoculated with viable cells.
as §3

Renca cancer cells = experiment: Survival of mice with renal cancer (Renca cells, intraperitoneal model); assay type: in vivo, male BALB/cAnNRJ mice
Description: as §4, §5, §3

B16-F10 cells = experiment: Survival of mice with melanoma (B16-F10 cells, intravenous model); assay type: in vivo, female C57BL/6J mice; conditions: B16-F10 cells, 500.000, tail vein injection (iv), C57BL/6J mice
Description: as §1, §2, §3

Row | Compound | mean survival (FIG. 3) (CT26.WT cancer cells [1]; 100,000 CT26.WT cells tail vein, treatment from day 4, P6 28 days, capecitabine 450 mg/kg/day oral cycles, control 33.3 days) [days] | Survival improvement vs untreated mice (mean, days) (CT26.WT cancer cells [1]; Colon cancer, CT26.WT cells, 10.000, tail vein injection (iv)) [days] | premature deaths by drug toxicity (4T1 cancer cells; 4T1 iv model, capecitabine 450 mg/kg/day, 7-day treatment+7-day rest, oral, n=10) | mean survival (FIG. 4) (4T1 cancer cells) [days] | Survival improvement vs untreated mice (mean, days) (4T1 cancer cells) | mean survival (FIG. 2) (CT26.WT cancer cells [2]; 100,000 CT26.WT cells ip, treatment from day 4, P10 6 weeks, capecitabine 450 mg/kg/day oral cycles, control 24.6 days) [days] | days lived more than untreated mice (CT26.WT cancer cells [2]; 100,000 CT26.WT cells ip, treatment from day 4, diets 6 weeks, capecitabine 450 mg/kg/day, 7-day treatment+7-day rest, oral) [days] | Survival improvement vs untreated mice (mean, days) (CT26.WT cancer cells [2]; Colon cancer, CT26.WT cells, 10.000, intraperitoneal injection (ip)) | mean survival (FIG. 1) (Renca cancer cells; 100,000 Renca cells ip, treatment from day 8, P2 28 days, sunitinib 60 mg/kg/day 28 days oral, anti-PD1 250 μg ip x4, control 35.2 days) [days] | Mean survival (Renca cancer cells; 150,000 Renca cells ip, treatment from day 7, 28 days, 10 days normal diet, 21 more days, sunitinib 60 mg/kg/day oral, control 30.75) [days] | Survival improvement vs. Control (Renca cancer cells; 150,000 Renca cells ip, treatment from day 7, Table 4 experiment) [days] | Survival improvement vs untreated mice (mean, days) (Renca cancer cells; Renal cancer, renca cells, 100.000, intraperitoneal injection (ip)) | Survival improvement vs untreated mice (mean, days) (B16-F10 cells)
1 | CCCCCOC(=O)Nc1nc(=O)n([C@@H]2O[C@H](C)[C@@H](O)[C@H]2O)cc1F [Capecitabine] | 36.7 | 0.0 | two mice died prematurely by excessive drug toxicity | 24.2 | +3.7 days | 27.7 | 4.5 | +7.6 days |  |  |  |  | 
2 | CCN(CC)CCNC(=O)c1c(C)[nH]c(/C=C2\C(=O)Nc3ccc(F)cc32)c1C [Sunitinib, Sunitinib malate] |  |  |  |  |  |  |  |  | 62.2 | 48 | 17.25 | +20.4 days | 
3 | N.N.[Cl][Pt][Cl] [Cisplatin] |  |  |  | 33.6 | +4.7 days |  |  |  |  |  |  |  | +3.5 days
